Read-outs that look alike come from different tables or passages of the source.
Tests used:
Details in all cases: for IC50: Homo sapiens
[1] = system: NCI-H23 cells; assay: Proliferation assay, cells in adhesion; format: cell-based
[2] = system: MIAPaCa-2 cells; assay: Proliferation assay, cells in adhesion; format: cell-based
[3] = system: SK-LU-1/AMG510 cells; assay: Proliferation assay, cells in adhesion; format: cell-based
[4] = system: MOLM-13 cells; assay: Long term proliferation assay, Cell Titer-Glo read-out; format: cell-based, human
Description: (§1) Compounds of invention are tested in the 5 suspension lines by 14-day long-term proliferation assay.
(§2) The compound is tested in 10-pt dose titration (client will determine the starting concentration and the dilution scheme) and the final DMSO concentration is kept at 0.2%.
(§3) On Day 0, in a flat bottom 96-well plate, add 100 μL of cells per well at the densities optimized. Prepare compounds in DMSO at 500× final concentration. Dilute the compounds with DMSO at the dilution. Dilute the compounds in media at 3× final concentration. Add 50 μL of compound or DMSO at 3× final concentration to each well. Final volume in each well is 150 μL, and final concentration of DMSO is 0.2%. Also include 3 untreated control wells, by adding 50 μL of media alone. Incubate plates for 96 hours.
(§4) To do this take the total viable cell count calculated using step: • 1. Take the average of the replicates for each dose in order to be used in splitting the cells. • 2. Use a 96 well V-bottom plate to spin down the cells to remove old media and compound to split the cells. • 3. Based on the split ratio place the proper amount of media and cells into the V-bottom plate, and spin the plate at 1100 rpm for 5 minutes. • 4. Following the spin remove the media, careful not to disturb the cell pellet. Re-suspend pellet in 100 μL fresh media, and add to a new 96-well flat bottom plate. • 5. Add fresh compound, in the same manner as Step 3). • 6. Incubate plates for 72 hours. Repeat steps 5)-10) on Day 7. • 7. Incubate plates for 96 hours. Repeat Step 5)-10) on Day 11. • 8. Incubate 72 hours and repeat step 5) to take a final count. • 9. Data Analysis
(§5) To calculate growth for days 4, 7, 11, and 14: • 1. Calculate the split factor for day 4 to 7, day 7 to 11, and day 11-14. The split factor is the viable cells/mL on Day X (either 4, 7 or 11) divided by the density the cells are being split back to. • 2. For growth of cells from day 4 to 7, multiply the day 7 viable cells/mL density by the split factor from day 4. • 3. For growth of cells from day 7 to 11, multiply the day 11 viable cells/mL density by the days 4, and 7 split factors. • 4. For growth of cells from Day 11 to 14, multiply the Day 14 viable cells/mL density by the days 4, 7, and 11 split factors. • 5. Plot growth on semi-log chart (viable cells/mL on Y axis, in log, and days on X axis). • 6. The growth inhibition was calculated with the formula ((untreated cell numbers-treated cell numbers)/untreated cell)). • 7. Calculate the IC50 for each compound in each line using XLFit (Sigmoidal Dose-Response Model, y=(Bottom+((Top-Bottom)/(1+((IC50/×)^Hill))))).

[5] = system: MV4-11 cells; assay: as above; format: cell-based, human
Description: as §1, §2, §3, §4, §5

[6] = system: Panc 10.05 cells; assay: Proliferation assay, cells in adhesion; format: cell-based

- IC50 ([1]; NCI-H23, NCI-H23, T4, read-out: IC50): > 5000 nM
- IC50 ([1]; NCI-H23, NCI-H23, T4, read-out: pIC50 (converted)): > 5010 nM
- IC50 ([1]; NCI-H23, NCI-H23, T7, read-out: IC50): > 5000 nM
- IC50 ([1]; NCI-H23, NCI-H23, T7, read-out: pIC50 (converted)): > 5010 nM
- IC50 ([1]; NCI-H23, NCI-H23, T11, read-out: IC50): > 5000 nM
- IC50 ([1]; NCI-H23, NCI-H23, T11, read-out: pIC50 (converted)): > 5010 nM
- IC50 ([2]; MIA PaCa-2, MIAPaCa-2, T4, read-out: IC50): 1480 nM
- IC50 ([2]; MIA PaCa-2, MIAPaCa-2, T4, read-out: pIC50 (converted)): 1480 nM
- IC50 ([2]; MIA PaCa-2, MIAPaCa-2, T7, read-out: IC50): 870 nM
- IC50 ([2]; MIA PaCa-2, MIAPaCa-2, T7, read-out: pIC50 (converted)): 871 nM
- IC50 ([2]; MIA PaCa-2, MIAPaCa-2, T11, read-out: IC50): 520 nM
- IC50 ([2]; MIA PaCa-2, MIAPaCa-2, T11, read-out: pIC50 (converted)): 525 nM
- IC50 ([3]; SK-LU-1, SK-LU-1/AMG510, T4, read-out: IC50): > 5000 nM
- IC50 ([3]; SK-LU-1, SK-LU-1/AMG510, T4, read-out: pIC50 (converted)): > 5010 nM
- IC50 ([3]; SK-LU-1, SK-LU-1/AMG510, T7, read-out: IC50): > 5000 nM
- IC50 ([3]; SK-LU-1, SK-LU-1/AMG510, T7, read-out: pIC50 (converted)): > 5010 nM
- IC50 ([3]; SK-LU-1/AMG510, T11, read-out: IC50): > 5000 nM
- IC50 ([3]; SK-LU-1/AMG510, T11, read-out: pIC50 (converted)): > 5010 nM
- IC50 ([4]; MOLM-13, 96 h, MOLM-13, Day 4, Cell Titer-Glo, read-out: Day 4 IC50): 500 nM
- IC50 ([4]; MOLM-13, 168 h, MOLM-13, Day 7, Cell Titer-Glo, read-out: Day 7 IC50): 340 nM
- IC50 ([4]; MOLM-13, 264 h, MOLM-13, Day 11, Cell Titer-Glo, read-out: Day 11 IC50): 350 nM
- IC50 ([4]; MOLM-13, 336 h, MOLM-13, Day 14, Cell Titer-Glo, read-out: Day 14 IC50): 360 nM
- IC50 ([4]; MOLM-13, MOLM-13, T4, CellTiter-Glo, read-out: IC50): 500 nM
- IC50 ([4]; MOLM-13, MOLM-13, T4, CellTiter-Glo, read-out: pIC50 (converted)): 501 nM
- IC50 ([4]; MOLM-13, MOLM-13, T11, CellTiter-Glo, read-out: IC50): 350 nM
- IC50 ([4]; MOLM-13, MOLM-13, T11, CellTiter-Glo, read-out: pIC50 (converted)): 355 nM
- IC50 ([5]; MV4-11, 96 h, MV4-11, Day 4, Cell Titer-Glo, read-out: Day 4 IC50): 360 nM
- IC50 ([5]; MV4-11, 168 h, MV4-11, Day 7, Cell Titer-Glo, read-out: Day 7 IC50): 140 nM
- IC50 ([5]; MV4-11, 264 h, MV4-11, Day 11, Cell Titer-Glo, read-out: Day 11 IC50): 110 nM
- IC50 ([5]; MV4-11, 336 h, MV4-11, Day 14, Cell Titer-Glo, read-out: Day 14 IC50): 90 nM
- IC50 ([5]; MV4-11, MV4-11, T4, CellTiter-Glo, read-out: IC50): 360 nM
- IC50 ([5]; MV4-11, MV4-11, T4, CellTiter-Glo, read-out: pIC50 (converted)): 363 nM
- IC50 ([5]; MV4-11, MV4-11, T11, CellTiter-Glo, read-out: IC50): 110 nM
- IC50 ([5]; MV4-11, MV4-11, T11, CellTiter-Glo, read-out: pIC50 (converted)): 115 nM
- IC50 ([6]; Panc1005, Panc 10.05, T4, read-out: IC50): > 5000 nM
- IC50 ([6]; Panc1005, Panc 10.05, T4, read-out: pIC50 (converted)): > 5010 nM
- IC50 ([6]; Panc1005, Panc 10.05, T7, read-out: IC50): > 5000 nM
- IC50 ([6]; Panc1005, Panc 10.05, T7, read-out: pIC50 (converted)): > 5010 nM
- IC50 ([6]; Panc1005, Panc 10.05, T11, read-out: IC50): 4170 nM
- IC50 ([6]; Panc1005, Panc 10.05, T11, read-out: pIC50 (converted)): 4170 nM
SMILES: CN(C)C/C=C/C(=O)Nc1ccc(CC(=O)Nc2ccc(-c3cc4c(N5CCOCC5)ncnc4[nH]3)cc2)cc1 [Compound 5]
- % max ([1]; NCI-H23, T4): <50%
- % max ([1]; NCI-H23, T7): <50%
- % max ([1]; NCI-H23, T11): <50%
- % max ([2]; MIAPaCa-2, T4): 95%
- % max ([2]; MIAPaCa-2, T7): 98%
- % max ([2]; MIAPaCa-2, T11): 99%
- % max ([3]; SK-LU-1/AMG510, T4): <50%
- % max ([3]; SK-LU-1/AMG510, T7): <50%
- % max ([3]; SK-LU-1/AMG510, T11): <50%
- % max ([4]; MOLM-13, T4, CellTiter-Glo): 98%
- % max ([4]; MOLM-13, T11, CellTiter-Glo): 99%
- % max ([5]; MV4-11, T4, CellTiter-Glo): 99%
- % max ([5]; MV4-11, T11, CellTiter-Glo): 99%
- % max ([6]; Panc 10.05, T4): <50%
- % max ([6]; Panc 10.05, T7): <50%
- % max ([6]; Panc 10.05, T11): 50%

Source: US12116371B2, “Substituted pyridines as irreversible inhibitors of menin-MLL interaction” (BIOMEA FUSION, INC., priority 2018, dated 2024)
